In brackets after ≈: the same amount, converted by molar mass. Marks after values point to notes of the source that are not given here.
How the values were obtained:
[1] = tested on: EC, KPN and PSA isolates; test: Thigh infection, dose fractionation and efficacy against all 10 isolates; type: in vivo, mice; conditions: 24 h; commonly in isolates with lower MICs
Experimental: (§1) 5 EC (4 ESBL), 3 KPN (2 CR), and 2 PSA were used. MICs were determined by agar dilution. […] PK/PD index determination was performed using a dose fractionation (DF) study design. […] The dose-response data was analyzed using the Emax Hill equation.

[2] = tested on: Enterobacteriaceae; test: Neutropenic murine-thigh infection model, AUC:MIC ratio targets; type: in vivo
[3] = tested on: Enterobacteriaceae; test: MIC distribution for 1,091 Enterobacteriaceae isolates from USA; type: cell-based
[4] = tested on: Carbapenemase-producing Enterobacteriaceae (CPE); test: FOF MIC by ETEST; type: cell-based; conditions: 37 CPE incl. 11 harboring fos(A)
Experimental: Isolates (n=37) harboring KPC, NDM, OXA, or VIM carbapenemases, with a majority also producing extended-spectrum β-lactamases, were acquired from the FDA-CDC Antimicrobial Resistant Bank. MICs for agents tested in combination with FOF were determined by broth microdilution; FOF MIC was determined by ETEST® antibiotic gradient diffusion strip prior to conducting synergy assessments between FOF and aztreonam (ATM), ceftazidime (CAZ), ceftazidime/avibactam (CZA), cefepime, ceftolozane/tazobactam (C/T), meropenem, piperacillin/tazobactam, and tobramycin (TOB). Synergistic potential for each combination was determined by crossing a FOF ETEST® strip with each of the aforementioned antibiotic strips at a 90° angle at their respective MICs with subsequent calculation of the fractional inhibitory concentration (FIC). […] Only organisms that were non-susceptible to the second drug were assessed for synergy.

[5] = Single dose plasma PK in mice after SC administration; conditions: mouse, in vivo
[6] = tested on: Clostridium spp., Finegoldia magna, and Peptostreptococcus spp.; test: Reference agar dilution MIC, anaerobes; type: cell-based; conditions: small collection
Experimental: (§2) FOS was tested against over 1,400 GN and 800 GP clinical isolates collected in US medical centers as part of the SENTRY Antimicrobial Surveillance Program (96% of isolates from 2015) and a selection of 29 GN and 20 GP anaerobes. Isolates were susceptibility (S) tested against FOS and comparators by reference agar dilution (25 μg/mL glucose-6-phosphate supplementation) using existing FDA breakpoints of the oral formulation for comparative assessments.

[7] = tested on: Veillonella spp.; test: Reference agar dilution MIC, anaerobes; type: cell-based
Experimental: as §2

[8] = tested on: Prevotella and Porphyromonas spp.; test: Reference agar dilution MIC, anaerobes; type: cell-based
Experimental: as §2

[9] = tested on: Propionibacterium spp.; test: Reference agar dilution MIC, anaerobes; type: cell-based
Experimental: as §2

[10] = tested on: Carbapenem-resistant Enterobacteriaceae (CRE) clinical isolates; test: Susceptibility testing, CRE clinical isolates; type: cell-based
[11] = tested on: ESBL-producing K. pneumoniae isolate; test: Time-kill kinetic analysis; type: cell-based, Klebsiella pneumoniae; conditions: FOS 1, 2, 4×MIC, 4 h
Experimental: Broth microdilution for FOS (Mueller-Hinton broth supplemented with 25 μg/mL glucose-6-phosphate) and comparators was performed before performing TKK. TKK employed MIC multiples for FOS, and ¼ and 1×MIC of select comparators, and combinations of FOS and comparator. TKK were sampled for colony counts at T0, T2, T4, T8 and T24 hours (h). Two Klebsiella pneumoniae isolates (one KPC and one ESBL), two Pseudomonas aeruginosa isolates (non-MDR), and one Acinetobacter baumannii isolate (MDR) were tested.

[12] = tested on: Acinetobacter-baumannii-calcoaceticus complex; test: Reference agar dilution MIC, SENTRY US isolates; type: cell-based
Experimental: as §2

[13] = tested on: S. saprophyticus; test: Reference agar dilution MIC, SENTRY US isolates; type: cell-based; conditions: Staphylococcus saprophyticus
Experimental: as §2

[14] = tested on: Klebsiella pneumoniae; test: Reference agar dilution MIC, SENTRY US isolates; type: cell-based
Experimental: as §2

[15] = tested on: S. agalactiae; test: Reference agar dilution MIC, SENTRY US isolates; type: cell-based; conditions: Streptococcus agalactiae
Experimental: as §2

[16] = tested on: E. faecium; test: Reference agar dilution MIC, SENTRY US isolates; type: cell-based; conditions: FDA oral breakpoints
Experimental: as §2

[17] = tested on: Pseudomonas aeruginosa; test: Reference agar dilution MIC, SENTRY US isolates; type: cell-based
Experimental: as §2

[18] = tested on: Serratia marcescens; test: Reference agar dilution MIC, SENTRY US isolates; type: cell-based; conditions: randomly selected
Experimental: as §2

[19] = tested on: Escherichia coli; test: Reference agar dilution MIC, SENTRY US isolates; type: cell-based; conditions: randomly selected
Experimental: as §2

[20] = tested on: Staphylococcus aureus; test: Reference agar dilution MIC, SENTRY US isolates; type: cell-based
Experimental: as §2

[21] = tested on: E. cloacae complex; test: Reference agar dilution MIC, SENTRY US isolates; type: cell-based; conditions: Enterobacter cloacae; randomly selected
Experimental: as §2

[22] = tested on: PSA; test: Thigh infection, static dose and PD targets; type: in vivo, mice
Experimental: as §1

[23] = tested on: EC; test: Thigh infection, static dose and PD targets; type: in vivo, mice
Experimental: as §1

[24] = tested on: KPN; test: Thigh infection, static dose and PD targets; type: in vivo, mice
Experimental: as §1

[25] = tested on: EC that were CR; test: Reference agar dilution MIC, resistant SENTRY isolates; type: cell-based, Escherichia coli
Experimental: Utilizing existing interpretative criteria for the marketed oral agent (dosed at 3 g) for analysis purposes, FOS susceptibility (S) was determined for recent resistant GN and GP clinical isolates including vancomycin-resistant Enterococcus faecium (VREM) and E. faecalis (VREF); methicillin-resistant Staphylococcus aureus (MRSA) and MR coagulase negative staphylococci (MR-CoNS), Escherichia coli (EC) and Klebsiella pneumoniae (KPN) containing extended spectrum beta-lactamases (ESBL) or were carbapenem resistant (CR); and), Pseudomonas aeruginosa (PSA) non-susceptible to ceftazidime (CAZ-NS) or to meropenem (MER-NS). […] Isolates were collected from hospitalized patients in the US as a part of the SENTRY surveillance program, 2013-2015.

SMILES: C[C@@H]1O[C@@H]1P(=O)(O)O [FOS, fosfomycin]
- Maximal cidal activity [1]: 2-3 log kill
- median total-drug plasma AUC:MIC ratio target ([2]; 1-log10 CFU reduction from baseline at 24 h): 41.6
- median total-drug plasma AUC:MIC ratio target ([2]; net bacterial stasis at 24 h): 19.1
- MIC90 [3]: 16 mgL
- MIC50 [4]: > 1020 µg/mL
- half-life [5]: 30.6 to 66 min
- MIC range [6]: 0.5 to 32 µg/mL
- MIC range [7]: ≤0.03 to 0.06 µg/mL
- MIC [8]: > 256 µg/mL
- MIC [9]: > 256 µg/mL
- MIC ([10]; FOS R isolate with fosA2 and SNP in glpT): 256 µg/mL (≈ 1850 µM)
- MIC ([10]; FOS-R isolate harboring fosA3): > 1020 µg/mL
- No. of isolates with FOS MIC>64 μg/mL ([10]; of 50 isolates): 3
- MIC ([10]; third FOS-R isolate (OXA-181+, CTXM-15+Kp)): 128 µg/mL (≈ 927 µM)
- decrease in CFU [11]: 1.4-2.2 log10 CFU
- MIC50 [12]: 128 µg/mL (≈ 927 µM)
- MIC90 [12]: 256 µg/mL (≈ 1850 µM)
- MIC50 [13]: 128 µg/mL (≈ 927 µM)
- MIC90 [13]: > 256 µg/mL
- % of isolates ≤64 μg/mL [14]: 97.0%
- MIC50 ([14]; Klebsiella pneumoniae): 4 µg/mL (≈ 29 µM)
- MIC90 ([14]; Klebsiella pneumoniae): 16 µg/mL (≈ 116 µM)
- MIC50 [15]: 8 µg/mL (≈ 57.9 µM)
- MIC90 [15]: 64 µg/mL (≈ 464 µM)
- % S [16]: 79.8%
- % intermediate [16]: 19.2%
- MIC50 [17]: 64 µg/mL (≈ 464 µM)
- MIC90 [17]: 128 µg/mL (≈ 927 µM)
- MIC50 [18]: 8 µg/mL (≈ 57.9 µM)
- MIC90 [18]: 16 µg/mL (≈ 116 µM)
- MIC50 ([19]; Escherichia coli): 0.5 µg/mL (≈ 3.62 µM)
- MIC90 ([19]; Escherichia coli): 1 µg/mL (≈ 7.24 µM)
- % S to FOS ([19]; FDA oral breakpoints): 100.0%
- MIC50 [20]: 4 µg/mL (≈ 29 µM)
- MIC90 [20]: 8 µg/mL (≈ 57.9 µM)
- MIC50 [21]: 8 µg/mL (≈ 57.9 µM)
- MIC90 [21]: 64 µg/mL (≈ 464 µM)
- Static Dose ([22]; mean): 1920 mg/kg/24 h
- Stasis AUC/MIC ([22]; mouse, in vivo): 15
- Stasis T > MIC ([22]; mouse, in vivo): 29%
- Static Dose ([23]; mean): 847 mg/kg/24 h
- Stasis AUC/MIC ([23]; median target): 19.3*
- Stasis T > MIC ([23]; median target): 37.7* %
- Static Dose ([24]; mean): 1667 mg/kg/24 h
- Stasis AUC/MIC ([24]; median target): 11.1*
- Stasis T > MIC ([24]; median target): 26.5* %
- MIC range ([25]; 9 of 11 isolates): 0.5 to 32 µg/mL
- MIC ([25]; Escherichia coli): > 256 µg/mL
